Assay results: the NIST ThermoML archive (doi:10.1021/acs.jced.7b01035)
± gives the expanded uncertainty stated by the source.

Conditions: 500 kPa, Liquid, Concentric cylinders viscometry

## NCCCO [3-amino-1-propanol]
298.15 K
  viscosity: 30.43 ± 0.33 mPa·s
303.15 K
  viscosity: 23.87 ± 0.32 mPa·s
308.15 K
  viscosity: 19.07 ± 0.31 mPa·s
313.15 K
  viscosity: 15.27 ± 0.31 mPa·s
318.15 K
  viscosity: 12.36 ± 0.31 mPa·s
323.15 K
  viscosity: 10.22 ± 0.3 mPa·s
328.15 K
  viscosity: 8.54 ± 0.3 mPa·s
333.15 K
  viscosity: 7.12 ± 0.3 mPa·s
338.15 K
  viscosity: 6.05 ± 0.3 mPa·s
343.15 K
  viscosity: 4.84 ± 0.3 mPa·s
348.15 K
  viscosity: 4.17 ± 0.3 mPa·s
353.15 K
  viscosity: 3.63 ± 0.3 mPa·s
358.15 K
  viscosity: 3.19 ± 0.3 mPa·s
363.15 K
  viscosity: 2.73 ± 0.3 mPa·s
368.15 K
  viscosity: 2.52 ± 0.3 mPa·s
373.15 K
  viscosity: 2.25 ± 0.3 mPa·s
